Laboratory results from ChEMBL document CHEMBL1201862, “PubChem BioAssay data set” (2004).
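Interpolation was linear, between the two tested concentrations surrounding the appropriate level; five concentrations were tested over 48 hours in 96-well plates. GI50: concentration for 50% inhibition of growth.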 Calls of active or inactive are those of the source. No stated cut-off is given here; in the data, active = GI50 up to about 1.1 µM and inactive = higher.

Key:
Test in all cases: NCI anticancer screen, dose series, 48 h
EKVX = test system: EKVX
UACC-257 = test system: UACC-257
HOP-18 = test system: HOP-18
SK-MEL-28 = test system: SK-MEL-28
M19-MEL = test system: M19-MEL
UACC-62 = test system: UACC-62
NCI-H460 = test system: NCI-H460
K562 = test system: K562
TK-10 = test system: TK-10
CCRF-CEM = test system: CCRF-CEM
Hs-578T = test system: Hs-578T
SK-OV-3 = test system: SK-OV-3
A549 = test system: A549
DLD-1 = test system: DLD-1
COLO 205 = test system: COLO 205
M14 = test system: M14
RXF 393 = test system: RXF 393
KM-20L2 = test system: KM-20L2
HOP-62 = test system: HOP-62
MDA-N = test system: MDA-N
OVCAR-5 = test system: OVCAR-5
DMS-114 = test system: DMS-114
UO-31 = test system: UO-31
U-251 = test system: U-251
SR = test system: SR
LXFL 529 = test system: LXFL 529
NCI-H522 = test system: NCI-H522
DMS-273 = test system: DMS-273
786-0 = test system: 786-0
MOLT-4 = test system: MOLT-4
HCT-116 = test system: HCT-116
ACHN = test system: ACHN
RXF 631 = test system: RXF 631
HCT-15 = test system: HCT-15
SW-620 = test system: SW-620
SF-539 = test system: SF-539
MDA-MB-435 = test system: MDA-MB-435
A498 = test system: A498
BT-549 = test system: BT-549
T47D = test system: T47D
OVCAR-4 = test system: OVCAR-4
SN12C = test system: SN12C
HT-29 = test system: HT-29
PC-3 = test system: PC-3
NCI-H226 = test system: NCI-H226
LOX IMVI = test system: LOX IMVI
SNB-78 = test system: SNB-78
CAKI-1 = test system: CAKI-1
MCF7 = test system: MCF7
SNB-75 = test system: SNB-75
Malme-3M = test system: Malme-3M
HOP-92 = test system: HOP-92
OVCAR-3 = test system: OVCAR-3
SNB-19 = test system: SNB-19
SK-MEL-2 = test system: SK-MEL-2
HL-60 = test system: HL-60
HCC 2998 = test system: HCC 2998
RPMI-8226 = test system: RPMI-8226
OVCAR-8 = test system: OVCAR-8
KM12 = test system: KM12
NCI-H23 = test system: NCI-H23
MDA-MB-231 = test system: MDA-MB-231
DU-145 = test system: DU-145
SF-295 = test system: SF-295
SF-268 = test system: SF-268
IGROV-1 = test system: IGROV-1
XF498 = test system: XF498
SK-MEL-5 = test system: SK-MEL-5

`CN(C)CCC(=O)N1C/C(=C/c2ccccc2)C(=O)/C(=C\c2ccccc2)C1` was tested, and the GI50 (EKVX) was 3.78 µM (inactive), the GI50 (UACC-257) was 2.08 µM (inactive) and the GI50 (HOP-18) was 4.46 µM (inactive). For the same compound, the GI50 (SK-MEL-28) was 1.58 µM (inactive), the GI50 (M19-MEL) was 0.834 µM (active) and the GI50 (UACC-62) was 1.53 µM (inactive). For the same compound, the GI50 (NCI-H460) was 2.33 µM (inactive), the GI50 (K562) was 0.182 µM (active) and the GI50 (TK-10) was 8.15 µM (inactive). For the same compound, the GI50 (CCRF-CEM) was 0.191 µM (active), the GI50 (Hs-578T) was 3.55 µM (inactive) and the GI50 (SK-OV-3) was 6.25 µM (inactive). For the same compound, the GI50 (A549) was 4.7 µM (inactive), the GI50 (DLD-1) was 0.931 µM (active) and the GI50 (COLO 205) was 2.24 µM (inactive). For the same compound, the GI50 (M14) was 1.91 µM (inactive), the GI50 (RXF 393) was 2.11 µM (inactive) and the GI50 (KM-20L2) was 0.998 µM (active). For the same compound, the GI50 (HOP-62) was 7.31 µM (inactive), the GI50 (MDA-N) was 1.14 µM (inactive) and the GI50 (OVCAR-5) was 2.6 µM (inactive). For the same compound, the GI50 (DMS-114) was 1.41 µM (inactive), the GI50 (UO-31) was 2.36 µM (inactive) and the GI50 (U-251) was 0.662 µM (active). For the same compound, the GI50 (SR) was 0.386 µM (active), the GI50 (LXFL 529) was 1.92 µM (inactive) and the GI50 (NCI-H522) was 0.301 µM (active). The GI50 (DMS-273) was 1.55 µM (inactive), the GI50 (786-0) was 1.49 µM (inactive) and the GI50 (MOLT-4) was 0.313 µM (active). For the same compound, the GI50 (HCT-116) was 0.447 µM (active), the GI50 (ACHN) was 2.01 µM (inactive) and the GI50 (RXF 631) was 2.29 µM (inactive). For the same compound, the GI50 (HCT-15) was 1.05 µM, the GI50 (SW-620) was 0.275 µM (active) and the GI50 (SF-539) was 3.91 µM (inactive). For the same compound, the GI50 (MDA-MB-435) was 1.43 µM (inactive), the GI50 (A498) was 3.12 µM (inactive) and the GI50 (BT-549) was 0.883 µM (active). For the same compound, the GI50 (T47D) was 4.82 µM (inactive), the GI50 (OVCAR-4) was 2.17 µM (inactive) and the GI50 (SN12C) was 1.25 µM (inactive). For the same compound, the GI50 (HT-29) was 0.679 µM (active), the GI50 (PC-3) was 1.54 µM (inactive) and the GI50 (NCI-H226) was 5.55 µM (inactive). For the same compound, the GI50 (LOX IMVI) was 0.436 µM (active), the GI50 (SNB-78) was 3 µM (inactive) and the GI50 (CAKI-1) was 2.41 µM (inactive). For the same compound, the GI50 (MCF7) was 0.349 µM (active), the GI50 (SNB-75) was 4.74 µM (inactive) and the GI50 (Malme-3M) was 2.16 µM (inactive). The GI50 (HOP-92) was 7.11 µM (inactive), the GI50 (OVCAR-3) was 2.59 µM (inactive) and the GI50 (SNB-19) was 2.48 µM (inactive). The GI50 (SK-MEL-2) was 2.95 µM (inactive), the GI50 (HL-60) was 0.356 µM (active) and the GI50 (HCC 2998) was 1.06 µM (active). The GI50 (RPMI-8226) was 0.134 µM (active), the GI50 (OVCAR-8) was 1.03 µM (active) and the GI50 (KM12) was 0.55 µM (active). For the same compound, the GI50 (NCI-H23) was 2.29 µM (inactive), the GI50 (MDA-MB-231) was 0.735 µM (active) and the GI50 (DU-145) was 6.79 µM (inactive). For the same compound, the GI50 (SF-295) was 2.93 µM (inactive), the GI50 (SF-268) was 2.74 µM (inactive) and the GI50 (IGROV-1) was 2.59 µM (inactive). For the same compound, the GI50 (XF498) was 2.5 µM (inactive) and the GI50 (SK-MEL-5) was 1.45 µM (inactive).
